The nature of series [1]: Colorimetric assay of peptide probe solutions (trimer vs single-stranded state). In kind it is physicochemical. Particulars: 300 μM probe solution; for conformational state (colour of solution) at 0° C.: 0° C. ice-water for 12 h after heating; for conformational state (colour of solution) after heating: 85° C. water bath 20 min. As for the experimental part: Take the peptide probe GOP-10, GPP-10, GPO-10 and GOO-10, and prepare 300 μM probe solutions respectively; Keep above probe solutions in a water bath at 85° C. for 20 min, and collect picture data via a digital camera and observe the color of the solutions. Place heated probe solution in the ice-water mixture at 0° C. for 12 h, and then collect picture data via a digital camera again and observe the color of the solution.

Series [2] in a line: Fluorescence spectrogram of probe solutions after 85° C. water bath and 0° C. ice bath. In kind it is physicochemical. The following applies: 300 μM probe solution, excitation 497 nm, emission 500-700 nm. As to the method:
Take the peptide probe GOP-10, GPP-10, GPO-10 and GOO-10, and prepare 300 μM probe solutions respectively; Keep above probe solutions in a water bath at 85° C. for 20 min, and measure the fluorescence spectrogram by a fluorescence spectrophotometer immediately. Place heated probe solution in the ice-water mixture at 0° C. for 12 h, and measure the fluorescence spectrogram by fluorescence spectrophotometer again; The excitation wavelength is 497 nm, and the scanning range of emission spectrum is 500-700 nm.

Series [3] is described as follows: Thermal stability test (fluorescence intensity at 525 nm, 0-95° C.). In kind it is physicochemical. The following applies: 15 μM probe in 10 mM phosphate buffer; for fluorescence intensity in the range of 0-95° C.: 525 nm, temperature gradient; for thermal transformation temperature: from derivative curves. As for the experimental part:
Take the peptide probe GOP-10, GPP-10, GPO-10 and GOO-10, and prepare 300 μM probe solutions respectively; Dilute each probe solution to 15 μM by 10 mM phosphate buffer, and store at 0° C. for later use. Take the probe solutions respectively, raise the temperature from 0° C. to 95° C. in a gradient, and detect the fluorescence intensity of the solutions at 525 nm during the temperature rise process to obtain the […]; Conduct the first derivative of the curve by corresponding the maximum value of the curve to the thermal change temperature of the probe.

Series [4] has as its system denatured collagen in mouse intestinal tissue. Briefly: Staining of collagen in intestinal tissue of mice by peptide probe. In kind it is binding. The following applies: 15 μM probe; for fluorescence staining ability, probe incubated at 0° C. before staining: FIG. 5a-d; for fluorescence staining ability, probe pretreated at 85° C. before staining: FIG. 5e-h. As to the method:
Take the peptide probe GOP-10, GPP-10, GPO-10 and GOO-10, and prepare 300 μM probe solutions respectively; Take the intestinal tissue samples of mice paraffin embedding and slice to 4 μm; After washing and deparaffinating the slices, treat the intestinal tissue with ultrapure water at 85° C. for 10 minutes to denature collagen.

Series [5] concerns denatured collagen in sternum and tail tissue sections. Briefly: Staining of denatured collagen in paraffin-embedded mouse sternum and frozen tail tissue sections. In kind it is binding. Particulars: general statement on the probes of the embodiments. As for the experimental part: Take the peptide probe prepared in Embodiment 1-5 for staining experiment. Paraffin staining of sternum: Embed mouse sternum tissue sections by paraffin and bake at 75° C. for 2 h; After cooling, treat the tissue with xylene twice, each time for 10 min; Then treat the slice with ethanol of gradient concentration; Finally, use ultrapure water to wash the slices twice. After removing the paraffin, treat the sternum tissue with ultrapure water at 85° C. for 10 minutes to denature collagen. Add blocking solution to the tissue section, leave it for 30 min, then suck up the solution, stain with 100 μL and 15 μM of the above peptide probe solutions, and incubate at 4° C. for 4 h; After removing the staining solution, wash with 1×PBS for 3 times, and wash the unbound probe with the washing solution; Drop mount solution, add cover slide, observe and take photos with fluorescence microscope.
Staining of frozen tail tissue: Treat tail tissue with 1% sodium dodecyl sulfate for 24 hours to denature collagen, and prepare the frozen sections. Put the slices in cold methanol and fix them at −20° C. for 10 min. Wash the frozen sections twice with PBS, add blocking solution to the tissue section, leave it for 30 min, then suck up the solution, stain with 100 μL and 15 μM of the above peptide probe solutions, and incubate at 4° C. for 2 h; After removing the staining solution, wash with 1×PBS for 3 times, and wash the unbound probe with the washing solution; Drop mount solution, add cover slide, observe and take photos with fluorescence microscope.
Results: The staining results of paraffin-embedded sternum tissues of peptide probe GOP-4, GOP-6, GOP-8, GOP-10 and GOP-12 prepared in Embodiment 1-5 of the present invention are shown in FIG. 1a.

Series [6] concerns pathological collagen in mouse ear tissue. In words: Staining of collagen in ear tissue of normal mice and diseased mice by peptide probe. The following applies: 15 μM probe. In kind it is binding. As to the method:
Take the peptide probe GOP-10 and prepare 300 μM probe solutions;
Take mouse ear tissue samples for paraffin embedding and slice to 4 μm; After washing and deparaffinating the slice, treat part of the ear bone tissues with ultrapure water at 85° C. for 10 minutes to denature collagen, thus obtaining injured ear tissues; Untreated ear tissue is normal ear tissue. Add blocking solution to the tissue section, leave it for 30 min, then suck up the solution, stain with 100 μL and 15 μM of the above peptide probe solutions, and incubate at 4° C. for 4 h; After removing the staining solution, stain with 100 μL DAPI diluent for lmin and wash with 1×PBS for 3 times, and wash the unbound probe and excessive DAPI diluent with the washing solution; Drop mount solution, add cover slide, observe and take photos with fluorescence microscope;
The test results are shown in FIG. 6, in which the fluorescence detection results of injured mouse ear tissues are shown in FIG. 6a and normal mouse ear tissues are shown in FIG. 6b.

For series [7], the system named is pathological collagen in human osteoarthritis tissue. In words: Staining of pathological section of human arthritis. In kind it is binding. Particulars: 15 μM probe, 4° C. 4 h. As for the experimental part: Take human osteoarthritis tissue for paraffin embedding, slice to 4 μm, carry out washing and deparaffinating, and then add with 0.5 mL blocking solution, and suck off the liquid after placing for 30 min. Stain with 100 μL, 15 μM peptide probe solution, and incubate at 4° C. for 4 h. After removing the staining solution, stain with 100 μL DAPI diluent for 1 min. Use 1×PBS to wash for 3 times, and wash the unbound probes and excess DAPI. Drop mount solution, add cover slide, observe and take photos with fluorescence microscope.
The staining results of pathological sections of fibrocartilage of human osteoarthritis are shown in FIG. 7, and the staining results of pathological sections of hyaline cartilage of human osteoarthritis are shown in FIG. 8. […] Therefore, the peptide probe GOP-10 prepared by the invention can be used for detecting pathological collagen in human osteoarthritis fibrocartilage and osteoarthritis hyaline cartilage.

Turning to FAM-Ahx-(GOO)10-NH2 [GOO-10], in series [1], the “conformational state (colour of solution) at 0° C.” value (“conformational state … at 0° C.” below) is recorded as “trimer state (orange)” and the “conformational state (colour of solution) after heating” value (“conformational state … after heating” for short) is “single-stranded conformation (green)”. In series [2], the “change of fluorescence intensity between 85° C. water bath and 0° C. ice bath” value (shortened to “change”) is “changed significantly”. In addition, in series [3], the “fluorescence intensity in the range of 0-95° C.” value is listed as “increased significantly” and the thermal transformation temperature came out at 69 °C. Also, in series [4], the “fluorescence staining ability, probe incubated at 0° C. before staining” value is on record as “no fluorescence staining ability” and the “fluorescence staining ability, probe pretreated at 85° C. before staining” value is “can be fluorescently stained”.

Consider FAM-Ahx-(GOP)8-NH2 [GOP-8], for which the “binding to pathological collagen” value in series [5] is listed as “can specifically bind to pathological collagen”.

FAM-Ahx-(GOP)10-NH2 [GOP-10]: the “binding to pathological collagen” value in series [5] is listed as “can specifically bind to pathological collagen”. Also, in series [1], the “conformational state … at 0° C.” value is reported as “stable single-stranded conformation (green)” and the “conformational state … after heating” value is “single-stranded state (green)”. For the same substance, the “change” value in series [2] was “does not change”. For the same substance, in series [3], the “fluorescence intensity in the range of 0-95° C.” value was “does not change”. Also, in series [4], the “fluorescence staining ability, probe incubated at 0° C. before staining” value was “good fluorescence staining ability” and the “fluorescence staining ability, probe pretreated at 85° C. before staining” value is on record as “good fluorescence staining ability”. Further, the “fluorescence staining of injured mouse ear tissue” value in series [6] (collagen denatured at 85° C. for 10 min, FIG. 6a) was “stained green”. Besides, the “fluorescence staining of normal mouse ear tissue” value in series [6] (untreated ear tissue, FIG. 6b) is recorded as “no green fluorescence”. In addition, the “staining of pathological section of fibrocartilage of human osteoarthritis” value in series [7] (FIG. 7) was “can specifically bind to pathological collagen”. Besides, in series [7] (FIG. 8), the “staining of pathological section of hyaline cartilage of human osteoarthritis” value was “can specifically bind to pathological collagen”.

On to FAM-Ahx-(GOP)12-NH2 [GOP-12], for which the “binding to pathological collagen” value in series [5] is “can specifically bind to pathological collagen”.

In the case of FAM-Ahx-(GPO)10-NH2 [GPO-10], in series [1], the “conformational state … at 0° C.” value is given as “trimer state (orange)” and the “conformational state … after heating” value was “single-stranded conformation (green)”. The “change” value in series [2] is “changed significantly”. Also, in series [3], the “fluorescence intensity in the range of 0-95° C.” value is “increased significantly” and the thermal transformation temperature was 63 °C. In series [4], the “fluorescence staining ability, probe incubated at 0° C. before staining” value is on record as “no fluorescence staining ability” and the “fluorescence staining ability, probe pretreated at 85° C. before staining” value is given as “can be fluorescently stained”.

Regarding FAM-Ahx-(GPP)10-NH2 [GPP-10], in series [1], the “conformational state … at 0° C.” value is reported as “trimer state (orange)” and the “conformational state … after heating” value is recorded as “single-stranded conformation (green)”. Also, the “change” value in series [2] was “changed significantly”. In series [3], the “fluorescence intensity in the range of 0-95° C.” value is “increased significantly” and the thermal transformation temperature amounted to 39 °C. Besides, in series [4], the “fluorescence staining ability, probe incubated at 0° C. before staining” value is reported as “no fluorescence staining ability” and the “fluorescence staining ability, probe pretreated at 85° C. before staining” value is given as “can be fluorescently stained”.

Source of the values: patent publication US20230087644A1, “Probe for Specifically Detecting Pathological Collagens, and Preparation Method Therefor and Use Thereof” (LANZHOU UNIVERSITY, priority 2020, published 2023).
